Experimental data: patent publication US8420777B2, “Compounds that inhibit Hsp90 protein-protein interactions with IAP proteins” (University of Massachusetts, priority 2004, dated 2013)
Square brackets hold non-standard residues; d marks the D form. Ends that are not written are not given here.

Columns and labels:
PC3 tumors = test: Peptide accumulation within the tumor mass, fluorescence microscopy; format: in vivo, SCID/beige mice; details: intraperitoneally, one hour after administration
Description: To determine whether the survivin peptidomimetic accumulates intracellularly in vivo, animals carrying flank PC3 tumors were injected intraperitoneally with saline, or the cell-permeable retro-inverso K79-L87 survivin peptide P3. One hour after administration, the animals were sacrificed, and the tumors were carefully excised and analyzed for peptide accumulation within the tumor mass by fluorescence microscopy.

[1] = tested on: normal lung fibroblast LU18 cells; test: Trypan blue exclusion in normal cells; format: cell-based; details: 150 μM, 24 hours
Hsp 27 = target: T1, Hsp 27 (Homo sapiens, UniProt P04792); test: Affinity chromatography of Raji cell extracts on Survivin peptide column; format: binding
T1 construct: used to fractionate Raji cell extracts; endogenous in cells; host or cells: Raji B lymphoma cells
Description: (§1) A Survivin Ile^74-Leu^87 peptide (SEQ ID NO:4) containing a binding site for Hsp90 was immobilized onto a Sulfolink™ Coupling Gel (Pierce, Rockport, Ill.), and used to fractionate Raji cell extracts. Proteins were identified in the flow trough (FT) or eluate (E) by Western blotting with the indicated antibodies. Hsp90 and Hsp70 clearly bound the Survivin peptide including residues Ile^74-Leu^87. The anti-Hsp70 antibodies were obtained from Abcam, Cambridge, Mass. (cat. No. ab6535).

Hsp90 = test: as above; format: binding; details: eluate by Western blotting
Description: as §1

Hsp70 = test: as above; format: binding; details: eluate by Western blotting
Description: as §1

[2] = tested on: HCT116, HeLa, MCF-7, PANC-1, PC3 tumor cells; test: Trypan blue exclusion in tumor cell lines; format: cell-based; details: 150 μM, 24 hours
Description: To study the specificity of the retro-inverso P3 and P4 sequences described in Example 17, we incubated a variety of tumor cell lines with the cell permeable retro-inverso P3 and P4 peptides (150 μM), and stained the cultures after 24 hours by trypan blue (Sigma) exclusion. Cells that fail to exclude the blue dye were cells that lost cell viability and plasma membrane integrity.

[3] = tested on: HeLa, MDA-MB231, MCF-7, PANC-1 tumor cell lines; test: MTT cell viability with retro-inverso peptides; format: cell-based; details: increasing concentrations, 24 hours
Description: For determination of apoptosis by hypodiploid DNA content, various tumor cell lines were incubated with increasing concentrations of the cell permeable control scrambled (SEQ ID NO:25) or Survivin peptide (SEQ ID NO:19), harvested after 24 hours (floaters plus attached cells) fixed in 70% ethanol, and stained with 10 μg/ml propidium iodide plus 100 μg/ml RNAse A and 0.05% Triton™ X-100 in PBS, pH 7.4. Cultures were analyzed for DNA content by flow cytometry. For colorimetric quantification of cell viability, an MTT assay was used. […] Decrease in cell viability was analyzed for loss of colorimetric absorption at OD405.
To increase the stability in vivo of the cell permeable Survivin K79-L87 sequence, we synthesized peptidomimetic variants in which the cell penetrating Antennapedia sequence and the Survivin active sequence K79-L87 were synthesized using D-amino acid ([…]) and in the reverse order (inverso sequence). […] To test the ability of the retro-inverso cell permeable sequences to induce apoptosis in cancer cells, a panel of tumor cell lines were analyzed by the cell viability MTT assay after incubation with the indicated increasing concentrations of the P3 (Survivin) or P4 (control) retro-inverso cell permeable peptides.

T1 sequence (P04792 whole entry): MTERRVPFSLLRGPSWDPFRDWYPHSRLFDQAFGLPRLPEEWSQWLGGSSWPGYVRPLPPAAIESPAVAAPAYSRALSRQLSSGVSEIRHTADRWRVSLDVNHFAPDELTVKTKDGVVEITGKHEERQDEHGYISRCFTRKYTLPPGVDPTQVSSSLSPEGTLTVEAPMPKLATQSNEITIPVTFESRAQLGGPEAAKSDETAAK

## CSCC[C@@H](NC(=O)[C@@H](CCCCN)NC(=O)[C@@H](Cc1c[nH]c2ccccc12)NC(=O)[C@@H](CCCCN)NC(=O)[C@@H](CCCCN)NC(=O)CCCCCNC(=O)CCCC[C@@H]1SC[C@@H]2NC(=O)N[C@@H]21)C(=O)N[C@H](CCCNC(=N)N)C(=O)N[C@H](CCCNC(=N)N)C(=O)N[C@H](CC(N)=O)C(=O)N[C@H](CCC(N)=O)C(=O)N[C@H](Cc1ccccc1)C(=O)N[C@H](Cc1c[nH]c2ccccc12)C(=O)N[C@@H](C(=O)N[C@H](CCCCN)C(=O)N[C@@H](C(=O)N[C@H](CCC(N)=O)C(=O)N[C@H](CCCNC(=N)N)C(=O)N[C@H](CC(C)C)C(=O)N[C@H](Cc1ccccc1)C(=O)N[C@H](C)C(=O)N[C@H](CS)C(=O)NCC(=O)N[C@H](CO)C(=O)N[C@H](CO)C(=O)N[C@H](Cc1c[nH]cn1)C(=O)N[C@H](CCCCN)C(N)=O)C(C)C)C(C)C [P3]
PC3 tumors
  intracellular accumulation in tumor cells: showed intracellular fluorescence
[1]
  viability of normal cells (trypan blue exclusion): neither the Survivin P3 nor the control P4 peptide resulted in decreased viability

## IDDHKKHSSGCAFL [SEQ ID NO:4]
Hsp 27
  Hsp 27 binding to peptide column: did not bind
Hsp90
  Hsp90 binding to peptide column: clearly bound
Hsp70
  Hsp70 binding to peptide column: clearly bound

## KKWKMRRNQFWVIWQRGHSFCALKS-CONH2 ([dK][dK][dW][dK][dM][dR][dR][dN][dQ][dF][dW][dV][dI][dW][dQ][dR]G[dH][dS][dF][dC][dA][dL][dK][dS]-NH2; also: retro-inverso) [P4, retro-inverso control scrambled peptide]
[2]
  tumor cell viability (trypan blue exclusion): did not reduce tumor cell viability
[3]
  cell viability (MTT): no decrease in cell viability
